We go through 1 compound from paper PMC7156612, “Olinciguat, an Oral sGC Stimulator, Exhibits Diverse Pharmacology Across Preclinical Models of Cardiovascular, Metabolic, Renal, and Inflammatory Disease” (Frontiers in Pharmacology, 2020).

Each structure is given as a SMILES string. Where two headings read alike, the source gives them in different places.

The target in the experiment is T1, sGC (Homo sapiens, UniProt Q02108+Q02153).
T1 construct: HEK-293 cells endogenously expressing sGC were treated with olinciguat; host or cells: HEK-293
T1 sequence (Q02153 1-619): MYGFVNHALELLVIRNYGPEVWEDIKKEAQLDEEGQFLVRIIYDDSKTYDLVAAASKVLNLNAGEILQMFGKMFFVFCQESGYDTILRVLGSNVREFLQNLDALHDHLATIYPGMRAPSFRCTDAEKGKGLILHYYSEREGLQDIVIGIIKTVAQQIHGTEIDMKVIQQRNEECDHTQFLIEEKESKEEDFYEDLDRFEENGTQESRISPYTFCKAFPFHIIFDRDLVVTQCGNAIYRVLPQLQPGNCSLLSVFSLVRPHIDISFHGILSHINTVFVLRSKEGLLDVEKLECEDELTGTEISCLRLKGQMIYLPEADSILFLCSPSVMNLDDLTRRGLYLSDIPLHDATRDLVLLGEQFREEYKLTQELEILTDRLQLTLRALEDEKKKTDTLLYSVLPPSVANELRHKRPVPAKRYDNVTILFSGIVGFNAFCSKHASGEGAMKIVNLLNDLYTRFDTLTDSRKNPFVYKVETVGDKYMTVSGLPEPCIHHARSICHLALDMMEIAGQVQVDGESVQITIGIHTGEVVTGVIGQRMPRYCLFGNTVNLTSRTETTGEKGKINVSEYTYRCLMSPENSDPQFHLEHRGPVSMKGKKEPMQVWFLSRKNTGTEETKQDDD
T1 sequence (Q02108 1-690): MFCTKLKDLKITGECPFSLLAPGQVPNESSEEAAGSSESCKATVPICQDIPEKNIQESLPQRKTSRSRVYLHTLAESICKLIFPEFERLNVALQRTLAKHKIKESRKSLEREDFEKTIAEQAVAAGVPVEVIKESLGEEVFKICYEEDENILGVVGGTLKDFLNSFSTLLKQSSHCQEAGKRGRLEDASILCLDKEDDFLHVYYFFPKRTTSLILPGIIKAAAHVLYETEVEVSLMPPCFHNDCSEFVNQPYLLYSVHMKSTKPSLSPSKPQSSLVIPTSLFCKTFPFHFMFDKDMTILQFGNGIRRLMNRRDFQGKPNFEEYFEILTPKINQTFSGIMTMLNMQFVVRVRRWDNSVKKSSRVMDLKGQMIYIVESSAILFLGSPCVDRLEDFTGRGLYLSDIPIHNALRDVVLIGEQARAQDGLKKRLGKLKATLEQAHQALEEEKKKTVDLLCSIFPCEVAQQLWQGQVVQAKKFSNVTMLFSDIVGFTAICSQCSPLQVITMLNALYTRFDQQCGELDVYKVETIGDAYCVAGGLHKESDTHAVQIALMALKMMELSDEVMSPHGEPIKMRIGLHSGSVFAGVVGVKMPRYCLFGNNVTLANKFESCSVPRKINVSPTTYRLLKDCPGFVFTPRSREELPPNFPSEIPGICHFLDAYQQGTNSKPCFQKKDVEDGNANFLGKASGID
Description: sGC whole cell assay (HEK-293, cGMP production). It counts as cell-based. As to the method: The human embryonic kidney (HEK)-293 whole cell assay was performed as described ([Tobin et al., 2018]). Briefly, HEK-293 cells (ATCC, Manassas, VA, #CRL-1573) were maintained in Dulbecco's modified Eagle's medium (DMEM) containing serum and antibiotics. Assays were performed in 384-well plates at 37°C by preincubating with 0.5 mM 3-isobutyl-1-methylxanthine (IBMX) in Hanks' Balanced Salt Solution (HBSS) containing calcium and magnesium for 15 min, then adding olinciguat with or without the NO donor diethylenetriamine NONOate (DETA), followed by a 20-min incubation. Cells were lysed with ice-cold 10% acetic acid then centrifuged, and cGMP levels in supernatants were determined by reverse-phase liquid chromatography with tandem mass spectrometry (LC-MS/MS). Concentration-response data were fit using a four-parameter fit (log(agonist) vs response – variable slope) using GraphPad Prism v.7.

For `NC(=O)[C@](O)(CNc1nc(-c2cc(-c3ccon3)n(Cc3ccccc3F)n2)ncc1F)C(F)(F)F` [olinciguat, (R)-3,3,3-trifluoro-2-(((5-fluoro-2-(1-(2-fluorobenzyl)-5-(isoxazol-3-yl)-1H-pyrazol-3-yl)pyrimidin-4-yl)amino)methyl)-2-hydroxypropanamide], the EC50 by setting is: (HEK-293 cells endogenously expressing sGC, in the presence of 10 µM DETA, geometric mean of 14 experiments, 95% CI 42.7 to 105 nM, read-out: EC50, cGMP production) 73.8 nM; (Table 2 summary, 10 µM DETA, read-out: Human cellular sGC assay (HEK-293) EC50, olinciguat concentration (range = 95% CI)) 42.7 to 105 nM.
